In publication PMC7321065, “Discovery of New Schiff Bases Tethered Pyrazole Moiety: Design, Synthesis, Biological Evaluation, and Molecular Docking Study as Dual Targeting DHFR/DNA Gyrase Inhibitors with Immunomodulatory Activity” (Molecules, 2020):
≈ marks a conversion by molar mass, not a printed value. Where two headings read alike, the source gives them in different places.

Legend:
[1] = system: Escherichia coli; assay: Inhibition zone, agar plate diffusion; format: cell-based; conditions: Ec, mm ± standard deviation, sample at 0.5 mg/mL, read-out: Inhibition zone (IZ)
Method in brief: (§1)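 Compounds in DMSO, with DMSO as negative control, were tested at 0.5 mg/mL in agar wells cut 10 mm wide.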

[2] = system: Candida albicans; assay: Inhibition zone, agar plate diffusion; format: cell-based; conditions: Ca, mm ± standard deviation, sample at 0.5 mg/mL, read-out: Inhibition zone (IZ)
Method in brief: as §1

[3] = system: Fusarium oxysporum; assay: Inhibition zone, agar plate diffusion; format: cell-based; conditions: Fo, mm ± standard deviation, sample at 0.5 mg/mL, read-out: Inhibition zone (IZ)
Method in brief: as §1

[4] = system: Salmonella typhi; assay: Inhibition zone, agar plate diffusion; format: cell-based; conditions: Salmonella enterica, St, mm ± standard deviation, sample at 0.5 mg/mL, read-out: Inhibition zone (IZ)
Method in brief: as §1

[5] = system: Staphylococcus aureus; assay: Inhibition zone, agar plate diffusion; format: cell-based; conditions: Sa, mm ± standard deviation, sample at 0.5 mg/mL, read-out: Inhibition zone (IZ)
Method in brief: as §1

[6] = system: Candida albicans; assay: MIC/MFC, paper disk diffusion; format: cell-based; conditions: for MIC / MFC: Candida albicans; for MFC: read-out: MFC
Method in brief: (§2)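 MIC and MBC were obtained by paper disk diffusion, bacteria grown on nutrient agar and fungi/yeast on Sabouraud agar. MIC is the lowest concentration inhibiting growth.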

[7] = system: Fusarium oxysporum; assay: MIC/MFC, paper disk diffusion; format: cell-based; conditions: F. oxysporum; for MFC / MIC: Fusarium oxysporum; for MFC: read-out: MFC; for MIC: read-out: MIC
Method in brief: as §2

[8] = system: hepatocellular carcinoma cell line (HepG2); assay: Antiproliferative activity, MTT assay; format: cell-based, human; conditions: Homo sapiens, HepG2; MTT, 48 h; read-out: IC50 HepG-2
Method in brief: (§3)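 MTT added for 4 h, formazan dissolved in DMSO, absorbance at 590 nm. Viability relative to untreated cells; IC50 by probit analysis.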

[9] = system: mammary gland breast cancer cell line (MCF-7); assay: Antiproliferative activity, MTT assay; format: cell-based, human; conditions: for IC50: Homo sapiens, MCF7, MTT, 48 h, read-out: IC50 MCF-7; for Fold relative to doxorubicin (IC50): MCF-7
Method in brief: as §3

[10] = system: Vero cells (ATCC CCL-81); assay: Cytotoxicity on normal cells, MTT assay; format: cell-based, African green monkey; conditions: MTT, healthy non-cancer cells, read-out: IC50 Vero
Experimental: 3-[4, 5-Dimethyl-2-thiazolyl)-2, 5-diphenyl-2 H-tetrazolium bromide (MTT) protocol is based on the cleavage of the tetrazolium salt by mitochondrial dehydrogenases in viable cells. Cells were dispensed in a 96 well sterile microplate (5 x 10^4 cells/well), and incubated at 37 °C with series of different concentrations, in DMSO, of each tested compound or Doxorubicin ® (positive control) for 48 h in a serum free medium prior to the MTT assay. After incubation, media were carefully removed, 40 µL of MTT (2.5 mg/mL) were added to each well and then incubated for an additional 4 h. The purple formazan dye crystals were solubilized by the addition of 200 µL of DMSO. The absorbance was measured at 590 nm using a SpectraMax® Paradigm® Multi-Mode microplate reader. The relative cell viability was expressed as the mean percentage of viable cells compared to the untreated control cells.
All experiments were conducted in triplicate and repeated in three different days. All the values were represented as mean ± SD. IC 50s were determined by probit analysis using SPSS software program (SPSS

[11] = system: S. aureus ATCC 43300 (MRSA); assay: Inhibition zone against MDRB, agar plate diffusion; format: cell-based
[12] = system: P. aeruginosa ATCC BAA-2111; assay: Inhibition zone against MDRB, agar plate diffusion; format: cell-based
[13] = system: E. coli ATCC BAA-196; assay: MIC/MBC against MDRB, paper disk diffusion; format: cell-based; conditions: Escherichia coli, ATCCBAA196, E. coli ATCC BAA-196; for MBC: read-out: MBC; for MIC: read-out: MIC
Excerpt: (§4) The inhibition zone (IZ, mm±standard deviation) of pyrazole Schiff bases ( 6b, 7b, 7c, 8a, 8d and 9b) was
(§5) measurement according to the agar plate diffusion method against a panel of multidrug-resistant bacteria
(MDRB). […]

[14] = system: P. aeruginosa ATCC BAA-2111; assay: MIC/MBC against MDRB, paper disk diffusion; format: cell-based; conditions: Pseudomonas aeruginosa, ATCCBAA2111, P. aeruginosa ATCC BAA-2111; for MBC: read-out: MBC; for MIC: read-out: MIC
Excerpt: as §4, §5
(MDRB). […]

[15] = system: S. aureus ATCC 33591; assay: MIC/MBC against MDRB, paper disk diffusion; format: cell-based; conditions: Staphylococcus aureus, ATCC33591, S. aureus ATCC 33591; for MBC: read-out: MBC; for MIC: read-out: MIC
Excerpt: as §4, §5
(MDRB). […]

[16] = system: S. aureus ATCC 43300 (MRSA); assay: MIC/MBC against MDRB, paper disk diffusion; format: cell-based; conditions: Staphylococcus aureus, S. aureus ATCC 43300; for MBC: read-out: MBC; for MIC: read-out: MIC
Excerpt: as §4, §5
(MDRB). […]

[17] = target: S. aureus DNA Gyrase (Staphylococcus aureus, UniProt P0A0K8+P20831); assay: DNA gyrase enzyme assay; format: biochemical; conditions: Mean ± SEM
S. aureus DNA Gyrase, sequence (P20831 whole entry): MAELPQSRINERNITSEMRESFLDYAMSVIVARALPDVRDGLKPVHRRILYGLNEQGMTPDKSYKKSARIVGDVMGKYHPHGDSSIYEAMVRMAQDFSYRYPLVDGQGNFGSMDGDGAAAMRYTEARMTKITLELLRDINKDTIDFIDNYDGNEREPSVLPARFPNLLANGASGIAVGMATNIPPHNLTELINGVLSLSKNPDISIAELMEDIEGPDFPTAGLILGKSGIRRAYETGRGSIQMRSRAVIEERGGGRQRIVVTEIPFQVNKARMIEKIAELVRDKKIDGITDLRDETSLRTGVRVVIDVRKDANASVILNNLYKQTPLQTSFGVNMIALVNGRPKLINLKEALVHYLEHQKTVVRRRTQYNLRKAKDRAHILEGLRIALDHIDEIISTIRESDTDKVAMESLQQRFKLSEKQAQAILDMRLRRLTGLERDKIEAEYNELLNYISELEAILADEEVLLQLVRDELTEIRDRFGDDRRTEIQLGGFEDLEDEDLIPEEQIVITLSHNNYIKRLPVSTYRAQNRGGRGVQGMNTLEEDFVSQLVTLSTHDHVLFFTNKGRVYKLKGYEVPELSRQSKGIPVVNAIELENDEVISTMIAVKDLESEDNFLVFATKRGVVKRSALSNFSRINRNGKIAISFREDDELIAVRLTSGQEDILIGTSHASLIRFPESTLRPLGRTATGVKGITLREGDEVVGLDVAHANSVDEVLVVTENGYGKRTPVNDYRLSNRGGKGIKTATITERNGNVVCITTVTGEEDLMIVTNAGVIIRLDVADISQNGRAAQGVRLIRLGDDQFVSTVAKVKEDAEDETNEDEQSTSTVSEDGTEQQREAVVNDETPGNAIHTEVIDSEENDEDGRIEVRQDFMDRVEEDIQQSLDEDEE
S. aureus DNA Gyrase, sequence (P0A0K8 whole entry): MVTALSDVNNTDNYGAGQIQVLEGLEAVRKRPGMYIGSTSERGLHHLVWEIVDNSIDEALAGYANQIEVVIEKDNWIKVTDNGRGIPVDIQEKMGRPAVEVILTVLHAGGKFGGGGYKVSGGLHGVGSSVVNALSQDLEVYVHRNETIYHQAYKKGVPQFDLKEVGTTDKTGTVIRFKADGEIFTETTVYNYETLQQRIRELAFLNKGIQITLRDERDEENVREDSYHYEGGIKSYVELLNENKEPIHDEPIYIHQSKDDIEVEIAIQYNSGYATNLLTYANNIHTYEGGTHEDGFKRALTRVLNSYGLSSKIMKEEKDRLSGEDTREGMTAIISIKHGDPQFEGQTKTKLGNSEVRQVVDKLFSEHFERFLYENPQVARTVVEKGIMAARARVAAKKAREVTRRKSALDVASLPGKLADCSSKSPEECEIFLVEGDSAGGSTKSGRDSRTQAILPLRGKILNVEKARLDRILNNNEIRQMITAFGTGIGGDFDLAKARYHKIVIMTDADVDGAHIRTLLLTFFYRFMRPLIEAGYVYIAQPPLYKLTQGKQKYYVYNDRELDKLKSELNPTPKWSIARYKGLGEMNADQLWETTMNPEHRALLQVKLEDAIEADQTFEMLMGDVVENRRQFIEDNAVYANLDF

[18] = target: DHFR E. coli (Escherichia coli, UniProt P0ABQ4); assay: Dihydrofolate reductase enzyme assay; format: biochemical; conditions: for Fold potential relative to Trimethoprim (IC50): DHFR
DHFR E. coli, sequence (P0ABQ4 whole entry): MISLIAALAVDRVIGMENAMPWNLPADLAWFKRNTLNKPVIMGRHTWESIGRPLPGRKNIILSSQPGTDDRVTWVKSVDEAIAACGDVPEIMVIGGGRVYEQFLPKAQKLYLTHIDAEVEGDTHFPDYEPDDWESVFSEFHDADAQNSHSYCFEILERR

SMILES	zone of inhibition at 500 µg/mL [1]	zone of inhibition at 500 µg/mL [2]	zone of inhibition at 500 µg/mL [3]	zone of inhibition at 500 µg/mL [4]	zone of inhibition at 500 µg/mL [5]	Fold activity in comparison with Amphotericin B (MIC) ([6]; C. albicans)	MFC ([6]; C. albicans)	Fold activity in comparison with Amphotericin B (MIC) [7]	MFC [7]	MIC [7]	IC50 [8]	IC50 [9]	Fold relative to doxorubicin (IC50) [9]	IC50 ([10]; Chlorocebus sabaeus, Vero)	IC50 [10]	Mean Diameter of Inhibition Zone against MDRB [11]	Mean Diameter of Inhibition Zone against MDRB [12]	MBC [13]	MIC [13]	MBC [14]	also measured
COc1ccc(Nc2n[nH]c(N=Cc3ccc(N4CCCCC4)cc3)c2C(N)=O)cc1 [8a, 3-(p-Methoxyphenylamino)-5-(4-(piperidin-1-yl)benzylideneamino)-1H-pyrazole-4-carboxamide]	23 ± 0.14 mm	24 ± 0.3 mm	20 ± 0.82 mm	23 ± 0.11 mm	26 ± 0.14 mm	2 fold	15.6 µg/mL (≈ 37.3 µM)	2 fold	27.8 µg/mL (≈ 66.4 µM)	15.6 µg/mL (≈ 37.3 µM)	2.25 ± 0.85 µM	1.98 ± 1.55 µM	0.979 fold	> 120 µM	120.5 ± 0.34 µM	26 ± 0.15 mm	27 ± 0.54 mm	3.9 µg/mL (≈ 9.32 µM)	1.95 µg/mL (≈ 4.66 µM)	7.8 µg/mL (≈ 18.6 µM)	MIC [6]: 7.81 µg/mL (≈ 18.7 µM); MIC [14]: 3.9 µg/mL (≈ 9.32 µM); MBC [15]: 7.8 µg/mL (≈ 18.6 µM); MIC [15]: 3.9 µg/mL (≈ 9.32 µM); MBC [16]: 3.9 µg/mL (≈ 9.32 µM); MIC [16]: 1.95 µg/mL (≈ 4.66 µM); IC50 [17]: 7.69 ± 0.23 µM; IC50 [18]: 3.98 ± 0.61 µM; Fold potential relative to Trimethoprim (IC50) [18]: 1.3 fold
COc1ccc(Nc2n[nH]c(N=Cc3cc(OC)c(OC)c(OC)c3)c2C(=O)Nc2ccccc2)cc1 [9b, 3-(p-Methoxyphenylamino)-N-phenyl-5-(3,4,5-trimethoxybenzylideneamino)-1H-pyrazole-4-carboxamide]	23 ± 0.2 mm	19 ± 0.25 mm	17 ± 0.5 mm	23 ± 0.4 mm	21 ± 0.3 mm	2 fold	12.5 µg/mL (≈ 24.9 µM)	2 fold	26.6 µg/mL (≈ 52.9 µM)	15.6 µg/mL (≈ 31.1 µM)	1.92 ± 0.49 µM	2.21 ± 0.36 µM	0.877 fold	> 120 µM	195.9 ± 0.57 µM	24 ± 0.65 mm	24 ± 0.88 mm	11.9 µg/mL (≈ 23.7 µM)	6.25 µg/mL (≈ 12.5 µM)	9.88 µg/mL (≈ 19.7 µM)	MIC ([6]; C. albicans, read-out: MIC): 7.81 µg/mL (≈ 15.6 µM); MIC [14]: 5.2 µg/mL (≈ 10.4 µM); MBC [15]: 3.31 µg/mL (≈ 6.6 µM); MIC [15]: 1.95 µg/mL (≈ 3.89 µM); MBC [16]: 4.5 µg/mL (≈ 8.97 µM); MIC [16]: 2.5 µg/mL (≈ 4.98 µM); IC50 [17]: 10.5 ± 0.55 µM; IC50 [18]: 6.48 ± 0.33 µM; Fold potential relative to Trimethoprim (IC50) [18]: 0.80 fold
